{"source": "paper PMC12892976", "about": "“Alkylation-based optimization of antifungal FPPS inhibitors yields a potent, broad-spectrum lipophilic zoledronate derivative” (mBio, 2025)", "key": {"Fusarium solani": {"test_system": "Fusarium solani", "assay": "MIC broth microdilution (CLSI)", "conditions": "Fusarium solani 04-16-056-1862", "procedure": "(§1) Antifungal susceptibility was determined by broth microdilution according to the CLSI guidelines described in M27-Ed4 ([16])."}, "Paraphyton cookei": {"test_system": "Paraphyton cookei", "assay": "MIC broth microdilution (CLSI)", "format": "cell-based", "conditions": "Paraphyton cookei R-639", "procedure": "as §1"}, "Trichophyton tonsurans": {"test_system": "Trichophyton tonsurans", "assay": "MIC broth microdilution (CLSI)", "conditions": "Trichophyton tonsurans R-168", "procedure": "as §1"}, "[1]": {"test_system": "Candida albicans biofilms", "assay": "biofilm XTT reduction assay (SIC80, SFICI)", "conditions": "for SICc / SFICI: Candida albicans", "procedure": "(§2) Biofilms of Cryptococcus were seeded in DMEM, and all other species were seeded in RPMI-1640."}, "Aspergillus terreus": {"test_system": "Aspergillus terreus", "assay": "checkerboard drug interaction (FICI, MICc)", "format": "cell-based", "procedure": "(§3) Drug interactions between antifungals and FPPS inhibitors were investigated using a simplified checkerboard diagonal screening method ([45]). […] FICIs were determined according to the Loewe additivity model ([17])."}, "[2]": {"test_system": "Cryptococcus deneoformans", "assay": "checkerboard drug interaction (FICI, MICc)", "format": "cell-based", "procedure": "as §3"}, "Epidermophyton floccosum": {"test_system": "Epidermophyton floccosum", "assay": "MIC broth microdilution (CLSI)", "format": "cell-based", "conditions": "Epidermophyon floccosum R-113", "procedure": "as §1"}, "Pichia kudriavzevii": {"test_system": "Pichia kudriavzevii", "assay": "checkerboard drug interaction (FICI, MICc)", "format": "cell-based", "procedure": "as §3"}, "[3]": {"test_system": "Trichophyton rubrum biofilms", "assay": "biofilm XTT reduction assay (SIC80, SFICI)", "format": "cell-based", "conditions": "for SICc / SFICI: Trichophyton rubrum", "procedure": "as §2"}, "Trichophyton soudanense": {"test_system": "Trichophyton soudanense", "assay": "MIC broth microdilution (CLSI)", "conditions": "Trichophyton soudanense R-167", "procedure": "as §1"}, "Nannizzia gypsea": {"test_system": "Nannizzia gypsea", "assay": "MIC broth microdilution (CLSI)", "format": "cell-based", "conditions": "Nannizzia gypsea R-131", "procedure": "as §1"}, "[4]": {"test_system": "Cryptococcus deuterogattii biofilms", "assay": "biofilm XTT reduction assay (SIC80, SFICI)", "conditions": "for SICc / SFICI: Cryptococcus deuterogattii", "procedure": "as §2"}, "Microsporum canis": {"test_system": "Microsporum canis", "assay": "MIC broth microdilution (CLSI)", "conditions": "Microsporum canis R-232", "procedure": "as §1"}, "Aspergillus felis": {"test_system": "Aspergillus felis", "assay": "checkerboard drug interaction (FICI, MICc)", "format": "cell-based", "procedure": "as §3"}, "Rhizopus oryzae": {"test_system": "Rhizopus oryzae", "assay": "checkerboard drug interaction (FICI, MICc)", "format": "cell-based", "procedure": "as §3"}, "Candida dubliniensis": {"test_system": "Candida dubliniensis", "assay": "checkerboard drug interaction (FICI, MICc)", "format": "cell-based", "procedure": "as §3"}}, "data": [{"smiles": "CCCCCCCCCCn1cc[n+](CC(O)(P(=O)(O)O)P(=O)(O)O)c1", "note": "[10-ZOL, Decyl-zoledronate]", "values": [{"measurement": "MIC / MEC", "setting": "Fusarium solani", "value": 4, "unit": "µg/mL"}, {"measurement": "MIC / MEC", "setting": "Paraphyton cookei", "value": 0.5, "unit": "µg/mL"}, {"measurement": "MIC / MEC", "setting": "Trichophyton tonsurans", "value": 1, "unit": "µg/mL"}, {"measurement": "SICc", "setting": "[1]; FLC:10-ZOL combination", "value": 32, "unit": "µg/mL"}, {"measurement": "SFICI", "setting": "[1]; FLC:10-ZOL", "value": 0.50}, {"measurement": "SICc", "setting": "[1]; ITR:10-ZOL combination", "value": 64, "unit": "µg/mL"}, {"measurement": "SFICI", "setting": "[1]; ITR:10-ZOL", "value": 1.00}, {"measurement": "SICc", "setting": "[1]; KET:10-ZOL combination", "value": 64, "unit": "µg/mL"}, {"measurement": "SFICI", "setting": "[1]; KET:10-ZOL", "value": 1.00}, {"measurement": "SIC80", "setting": "[1]; agent alone, Candida albicans SC5314", "value": 128, "unit": "µg/mL"}, {"measurement": "FICI", "setting": "Aspergillus terreus; 5FC:10-ZOL", "value": 1.5}, {"measurement": "FICI", "setting": "Aspergillus terreus; CAS:10-ZOL", "value": 3}, {"measurement": "FICI", "setting": "Aspergillus terreus; FLC:10-ZOL", "value": 0.53}, {"measurement": "FICI", "setting": "Aspergillus terreus; ITR:10-ZOL", "value": 1}, {"measurement": "FICI", "setting": "Aspergillus terreus; KET:10-ZOL", "value": 1.5}, {"measurement": "FICI", "setting": "Aspergillus terreus; VOR:10-ZOL", "value": 1.5}, {"measurement": "bisphosphonate MICc", "setting": "Aspergillus terreus; with 5FC", "value": 0.25}, {"measurement": "bisphosphonate MICc", "setting": "Aspergillus terreus; with AMB", "value": 0.5}, {"measurement": "bisphosphonate MICc", "setting": "Aspergillus terreus; with CAS", "value": 1}, {"measurement": "bisphosphonate MICc", "setting": "Aspergillus terreus; with FLC", "value": 0.25}, {"measurement": "bisphosphonate MICc", "setting": "Aspergillus terreus; with ITR", "value": 0.25}, {"measurement": "bisphosphonate MICc", "setting": "Aspergillus terreus; with KET", "value": 0.25}, {"measurement": "bisphosphonate MICc", "setting": "Aspergillus terreus; with VOR", "value": 0.25}, {"measurement": "FICI", "setting": "[2]; FLC:10-ZOL", "value": 1}, {"measurement": "FICI", "setting": "[2]; ITR:10-ZOL", "value": 1.55}, {"measurement": "FICI", "setting": "[2]; KET:10-ZOL", "value": 0.61}, {"measurement": "FICI", "setting": "[2]; VOR:10-ZOL", "value": 1.3}, {"measurement": "bisphosphonate MICc", "setting": "[2]; with 5FC", "value": 0.5}, {"measurement": "bisphosphonate MICc", "setting": "[2]; with AMB", "value": 0.125}, {"measurement": "bisphosphonate MICc", "setting": "[2]; with CAS", "value": 1}, {"measurement": "bisphosphonate MICc", "setting": "[2]; with FLC", "value": 0.5}, {"measurement": "bisphosphonate MICc", "setting": "[2]; with ITR", "value": 0.5}, {"measurement": "bisphosphonate MICc", "setting": "[2]; with KET", "value": 0.125}, {"measurement": "bisphosphonate MICc", "setting": "[2]; with VOR", "value": 0.25}, {"measurement": "MIC / MEC", "setting": "Epidermophyton floccosum", "value": 0.5, "unit": "µg/mL"}, {"measurement": "FICI", "setting": "Pichia kudriavzevii; AMB:10-ZOL", "value": 1}, {"measurement": "FICI", "setting": "Pichia kudriavzevii; KET:10-ZOL", "value": 1.5}, {"measurement": "FICI", "setting": "Pichia kudriavzevii; VOR:10-ZOL", "value": 1.03}, {"measurement": "bisphosphonate MICc", "setting": "Pichia kudriavzevii; with 5FC", "value": 1}, {"measurement": "bisphosphonate MICc", "setting": "Pichia kudriavzevii; with AMB", "value": 2}, {"measurement": "bisphosphonate MICc", "setting": "Pichia kudriavzevii; with CAS", "value": 0.5}, {"measurement": "bisphosphonate MICc", "setting": "Pichia kudriavzevii; with FLC", "value": 0.5}, {"measurement": "bisphosphonate MICc", "setting": "Pichia kudriavzevii; with ITR", "value": 0.25}, {"measurement": "bisphosphonate MICc", "setting": "Pichia kudriavzevii; with KET", "value": 2}, {"measurement": "bisphosphonate MICc", "setting": "Pichia kudriavzevii; with VOR", "value": 0.125}, {"measurement": "FICI range (biofilm)", "setting": "[3]; azoles with 10-ZOL, Trichophyton rubrum biofilms", "value": "0.38–0.50"}, {"measurement": "SICc", "setting": "[3]; biofilm, FLC:10-ZOL combination", "value": 16, "unit": "µg/mL"}, {"measurement": "SFICI", "setting": "[3]; biofilm, FLC:10-ZOL", "value": 0.38}, {"measurement": "SICc", "setting": "[3]; biofilm, ITR:10-ZOL combination", "value": 16, "unit": "µg/mL"}, {"measurement": "SFICI", "setting": "[3]; biofilm, ITR:10-ZOL", "value": 0.38}, {"measurement": "SICc", "setting": "[3]; biofilm, KET:10-ZOL combination", "value": 16, "unit": "µg/mL"}, {"measurement": "SFICI", "setting": "[3]; biofilm, KET:10-ZOL", "value": 0.50}, {"measurement": "SIC80", "setting": "[3]; biofilm, agent alone, Trichophyton rubrum 213", "value": 64, "unit": "µg/mL"}, {"measurement": "MIC / MEC", "setting": "Trichophyton soudanense", "value": 2, "unit": "µg/mL"}, {"measurement": "MIC / MEC", "setting": "Nannizzia gypsea", "value": 0.5, "unit": "µg/mL"}, {"measurement": "SICc", "setting": "[4]; FLC:10-ZOL combination", "value": 32, "unit": "µg/mL"}, {"measurement": "SFICI", "setting": "[4]; FLC:10-ZOL", "value": 1.00}, {"measurement": "SICc", "setting": "[4]; ITR:10-ZOL combination", "value": 32, "unit": "µg/mL"}, {"measurement": "SFICI", "setting": "[4]; ITR:10-ZOL", "value": 1.00}, {"measurement": "SICc", "setting": "[4]; KET:10-ZOL combination", "value": 16, "unit": "µg/mL"}, {"measurement": "SFICI", "setting": "[4]; KET:10-ZOL", "value": 0.38}, {"measurement": "SIC80", "setting": "[4]; agent alone, Cryptococcus deuterogattii R265", "value": 64, "unit": "µg/mL"}, {"measurement": "MIC / MEC", "setting": "Microsporum canis", "value": 1, "unit": "µg/mL"}, {"measurement": "FICI", "setting": "Aspergillus felis; AMB:10-ZOL", "value": 1}, {"measurement": "FICI", "setting": "Aspergillus felis; CAS:10-ZOL", "value": "≥4"}, {"measurement": "FICI", "setting": "Aspergillus felis; FLC:10-ZOL", "value": 0.52}, {"measurement": "bisphosphonate MICc", "setting": "Aspergillus felis; with 5FC", "value": 1}, {"measurement": "bisphosphonate MICc", "setting": "Aspergillus felis; with AMB", "value": 1}, {"measurement": "bisphosphonate MICc", "setting": "Aspergillus felis; with CAS", "value": 4}, {"measurement": "bisphosphonate MICc", "setting": "Aspergillus felis; with FLC", "value": 1}, {"measurement": "bisphosphonate MICc", "setting": "Aspergillus felis; with ITR", "value": 1}, {"measurement": "bisphosphonate MICc", "setting": "Aspergillus felis; with KET", "value": 0.25}, {"measurement": "bisphosphonate MICc", "setting": "Aspergillus felis; with VOR", "value": 1}, {"measurement": "FICI", "setting": "Rhizopus oryzae; 5FC:10-ZOL", "value": "≥4"}, {"measurement": "FICI", "setting": "Rhizopus oryzae; CAS:10-ZOL", "value": "≥4"}, {"measurement": "FICI", "setting": "Rhizopus oryzae; VOR:10-ZOL", "value": 1}, {"measurement": "bisphosphonate MICc", "setting": "Rhizopus oryzae; with 5FC", "value": 2}, {"measurement": "bisphosphonate MICc", "setting": "Rhizopus oryzae; with AMB", "value": 0.25}, {"measurement": "bisphosphonate MICc", "setting": "Rhizopus oryzae; with CAS", "value": 0.5}, {"measurement": "bisphosphonate MICc", "setting": "Rhizopus oryzae; with FLC", "value": 2}, {"measurement": "bisphosphonate MICc", "setting": "Rhizopus oryzae; with ITR", "value": 2}, {"measurement": "bisphosphonate MICc", "setting": "Rhizopus oryzae; with KET", "value": 2}, {"measurement": "bisphosphonate MICc", "setting": "Rhizopus oryzae; with VOR", "value": 2}, {"measurement": "FICI", "setting": "Candida dubliniensis; CAS:10-ZOL", "value": 1.18}, {"measurement": "FICI", "setting": "Candida dubliniensis; KET:10-ZOL", "value": 0.43}, {"measurement": "FICI", "setting": "Candida dubliniensis; VOR:10-ZOL", "value": 1.55}, {"measurement": "bisphosphonate MICc", "setting": "Candida dubliniensis; with 5FC", "value": 0.25}, {"measurement": "bisphosphonate MICc", "setting": "Candida dubliniensis; with AMB", "value": 0.125}, {"measurement": "bisphosphonate MICc", "setting": "Candida dubliniensis; with CAS", "value": 0.125}, {"measurement": "bisphosphonate MICc", "setting": "Candida dubliniensis; with FLC", "value": 0.25}]}]}
